Earlier results in patent US20200399148A1, “METHOD AND APPARATUS FOR ELECTROCHEMICAL pH CONTROL” (BAR-ILAN UNIVERSITY, priority 2018, published 2020).

Test system: bacteria
Conditions: relative to hypochlorous acid

## OCl [OCl^−, hypochlorite anion]
  bactericidal activity, times less than hypochlorous acid: 80-120 time less
